# Assay results: patent EP4813999A1, “NOVEL PEPTIDE DERIVATIVE AND PHARMACEUTICAL COMPOSITION FOR PREVENTING OR TREATING MACULAR DEGENERATION COMPRISING SAME” (Supadelixir Inc., priority 2023, dated 2026)
# How the values were obtained:
# ARPE19 cells = assay: Hydrogen peroxide-induced cellular senescence (SA-β-Gal activity staining); format: cell-based, Human; details: 200 µM hydrogen peroxide, test substance 0.01, 0.1, 1 µM, 24 hours
# Protocol: Human retinal pigment epithelial cells (ARPE19) were cultured in a humidified incubator with 5% CO2 at 37°C. DMEM/F12 (Gibco) containing 10% fetal bovine serum and penicillin (100 U/ml)/streptomycin ([…]) was used as medium. The cells were cultured with the medium replaced with fresh medium every other day and were passaged using 0.25% trypsin containing 0.02% ethylenediaminetetraacetic acid (EDTA).
# After cellular senescence caused by oxidative stress was promoted in ARPE19 cells using hydrogen peroxide (H2O2), the test substance (SE101B2L) was added at varying concentrations to evaluate inhibitory effects against cellular senescence. Inhibitory activity against cellular senescence was evaluated using senescence-associated β-galactosidase (SA-β-Gal) activity staining, which is well known as a marker for cellular senescence.
# ARPE19 cells were seeded into a 96-well plate at 1 × 10^5 cells/well and cultured in an incubator with 5% CO2 at 37°C for 24 hours. […] Cells stained blue were observed under an optical microscope, and the degree of SA-β-gal activity was expressed as a percentage by measuring the number of cells stained blue in the cytoplasm among a total of 50 to 100 cells. The degree of senescence was quantified through measurement.
# HUVECs = assay: Cytotoxicity of test substance (CCK-8 cell viability); format: cell-based, human; details: 24, 48 and 72 hours, up to a concentration of 1,000 nM (1 µM), relative to untreated group at 24 hours
# Protocol: The anti-angiogenic activity of the test substance (SE101B2L) was evaluated using HUVECs. HUVECs were cultured in CEFOgro-HUVEC basal medium (CEFO Co., Ltd.) supplemented with growth supplements containing vascular endothelial cell growth-related factors and serum (HUVEC supplements, CEFO Co., Ltd.), which was used as vascular endothelial cell growth medium (hereinafter denoted as "growth medium").
# HUVECs were seeded into a 96-well plate at 5 × 10^3 cells per well together with 0.1 ml of growth medium. After incubation for one day, the cells were treated with the test substance (SE101B2L) such that the final concentration increased tenfold from 0.001 nM (denoted as log -3) to 10,000 nM (denoted as log 4). Thereafter, test groups were incubated for 24, 48, and 72 hours, and Cell Counting Kit-8 (CCK-8) was added at each predetermined time point, followed by incubation for an additional 2 hours, and absorbance was measured at 450 nm. Cell viability was calculated relative to the absorbance value of the untreated group at 24 hours.
substance,measurement,setting,value
decylbenzoyl-Cys-Phe-Lys-amide [SE101B2L],SA-β-gal activity,ARPE19 cells,decreases SA-β-gal activity in a concentration-dependent manner
same,cell viability (cytotoxicity),HUVECs,no significant difference in cell viability
